The term AC50 denotes the concentration giving half of the maximal activity seen. High values mean activity only at high concentration, low ones activity at low concentration.

Targets include Motilin receptor (Homo sapiens, UniProt O43193); Melanocortin receptor 3 (Homo sapiens, UniProt P41968); D(3) dopamine receptor (Homo sapiens, UniProt P35462).
The target of test [1] is Growth hormone secretagogue receptor type 1 (Homo sapiens, UniProt Q92847).
Test [2] deals with T1, 5-hydroxytryptamine receptor 2C (Homo sapiens, UniProt P28335).
T1 sequence (P28335 whole entry): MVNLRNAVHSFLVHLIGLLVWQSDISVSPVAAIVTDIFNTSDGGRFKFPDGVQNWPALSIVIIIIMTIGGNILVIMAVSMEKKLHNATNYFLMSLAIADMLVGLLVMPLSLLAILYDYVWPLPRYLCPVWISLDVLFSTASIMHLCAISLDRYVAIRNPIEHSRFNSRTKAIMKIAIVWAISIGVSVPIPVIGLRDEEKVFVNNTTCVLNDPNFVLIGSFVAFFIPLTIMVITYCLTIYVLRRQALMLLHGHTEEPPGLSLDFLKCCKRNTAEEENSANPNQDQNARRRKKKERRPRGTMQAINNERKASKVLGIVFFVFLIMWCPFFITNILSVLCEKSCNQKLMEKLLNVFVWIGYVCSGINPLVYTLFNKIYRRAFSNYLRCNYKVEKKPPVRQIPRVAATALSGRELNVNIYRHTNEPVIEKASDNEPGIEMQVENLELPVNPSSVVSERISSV

The target in the next test is T2, Adenosine receptor A1 (Homo sapiens, UniProt P30542).
T2 sequence (P30542 whole entry): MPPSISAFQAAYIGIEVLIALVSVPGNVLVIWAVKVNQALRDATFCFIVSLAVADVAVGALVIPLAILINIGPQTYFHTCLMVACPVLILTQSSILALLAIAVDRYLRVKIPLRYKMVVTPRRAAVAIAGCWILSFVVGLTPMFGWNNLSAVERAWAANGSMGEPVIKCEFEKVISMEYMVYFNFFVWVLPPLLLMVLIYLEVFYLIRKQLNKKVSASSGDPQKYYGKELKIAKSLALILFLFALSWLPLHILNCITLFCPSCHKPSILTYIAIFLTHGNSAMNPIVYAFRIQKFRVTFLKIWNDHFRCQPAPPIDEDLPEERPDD

The target in test [3] is T3, 5-hydroxytryptamine receptor 1A (Homo sapiens, UniProt P08908).
T3 sequence (P08908 whole entry): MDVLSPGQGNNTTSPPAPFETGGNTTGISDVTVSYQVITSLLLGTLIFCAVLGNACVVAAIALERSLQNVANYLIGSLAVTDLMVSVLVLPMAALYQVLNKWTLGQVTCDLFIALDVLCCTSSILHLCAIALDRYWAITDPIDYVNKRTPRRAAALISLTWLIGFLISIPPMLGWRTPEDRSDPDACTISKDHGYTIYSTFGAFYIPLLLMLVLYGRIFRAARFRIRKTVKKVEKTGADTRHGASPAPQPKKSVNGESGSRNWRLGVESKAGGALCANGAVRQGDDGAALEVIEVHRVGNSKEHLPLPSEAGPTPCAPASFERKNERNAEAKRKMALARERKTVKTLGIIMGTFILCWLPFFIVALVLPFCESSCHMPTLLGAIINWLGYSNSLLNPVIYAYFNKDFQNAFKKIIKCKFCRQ
It is filed as functional, cell-based.

A further test addresses T4, Adenosine receptor A3 (Homo sapiens, UniProt P0DMS8).
T4 sequence (P0DMS8 whole entry): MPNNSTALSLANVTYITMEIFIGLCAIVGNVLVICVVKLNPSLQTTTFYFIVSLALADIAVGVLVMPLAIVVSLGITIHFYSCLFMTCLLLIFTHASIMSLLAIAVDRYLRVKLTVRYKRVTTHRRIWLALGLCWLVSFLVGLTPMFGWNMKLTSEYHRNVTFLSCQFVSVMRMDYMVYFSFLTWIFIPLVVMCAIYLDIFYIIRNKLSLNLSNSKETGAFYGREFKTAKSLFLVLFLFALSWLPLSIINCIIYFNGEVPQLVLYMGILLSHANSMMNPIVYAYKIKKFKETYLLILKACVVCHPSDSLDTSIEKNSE

In test [4] the target is Neuronal acetylcholine receptor subunit alpha-4 (Homo sapiens, UniProt P43681).
Test [5] concerns the target Sodium-dependent noradrenaline transporter (Homo sapiens, UniProt P23975).
Test [6] concerns the target 3',5'-cyclic-AMP phosphodiesterase 4D (Homo sapiens, UniProt Q08499). In kind it is functional.
In test [7] the target is T5, Equilibrative nucleoside transporter 1 (Homo sapiens, UniProt Q99808).
T5 sequence (Q99808 whole entry): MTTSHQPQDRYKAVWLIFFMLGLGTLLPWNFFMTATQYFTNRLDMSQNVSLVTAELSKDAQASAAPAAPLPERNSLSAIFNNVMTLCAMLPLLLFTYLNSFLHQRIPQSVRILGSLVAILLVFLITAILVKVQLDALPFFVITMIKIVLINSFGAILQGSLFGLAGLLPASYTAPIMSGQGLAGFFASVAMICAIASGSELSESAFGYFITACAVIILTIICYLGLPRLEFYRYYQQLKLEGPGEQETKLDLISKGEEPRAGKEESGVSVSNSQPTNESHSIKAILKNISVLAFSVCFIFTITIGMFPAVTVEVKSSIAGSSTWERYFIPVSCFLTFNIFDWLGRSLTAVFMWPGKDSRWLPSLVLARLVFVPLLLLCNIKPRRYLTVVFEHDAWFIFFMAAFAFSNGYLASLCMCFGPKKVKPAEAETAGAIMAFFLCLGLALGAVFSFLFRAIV

Test [8] has as its target 5-hydroxytryptamine receptor 2B (Homo sapiens, UniProt P41595). In kind it is functional, cell-based.
In test [9] the target is T6, Type-1 angiotensin II receptor (Homo sapiens, UniProt P30556).
T6 sequence (P30556 whole entry): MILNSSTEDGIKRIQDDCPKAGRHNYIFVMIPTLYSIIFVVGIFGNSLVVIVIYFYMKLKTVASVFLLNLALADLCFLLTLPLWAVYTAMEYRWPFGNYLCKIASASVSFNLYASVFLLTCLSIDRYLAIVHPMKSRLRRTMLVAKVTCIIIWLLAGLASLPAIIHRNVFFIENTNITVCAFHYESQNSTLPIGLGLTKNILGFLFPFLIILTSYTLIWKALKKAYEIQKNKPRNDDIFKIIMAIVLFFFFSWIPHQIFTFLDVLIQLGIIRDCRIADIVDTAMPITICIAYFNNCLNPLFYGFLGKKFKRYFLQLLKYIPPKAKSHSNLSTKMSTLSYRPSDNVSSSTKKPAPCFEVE

Structures are written as SMILES.
Note: assay procedure not described here.

Growth hormone secretagogue receptor type 1, sequence (Q92847 whole entry): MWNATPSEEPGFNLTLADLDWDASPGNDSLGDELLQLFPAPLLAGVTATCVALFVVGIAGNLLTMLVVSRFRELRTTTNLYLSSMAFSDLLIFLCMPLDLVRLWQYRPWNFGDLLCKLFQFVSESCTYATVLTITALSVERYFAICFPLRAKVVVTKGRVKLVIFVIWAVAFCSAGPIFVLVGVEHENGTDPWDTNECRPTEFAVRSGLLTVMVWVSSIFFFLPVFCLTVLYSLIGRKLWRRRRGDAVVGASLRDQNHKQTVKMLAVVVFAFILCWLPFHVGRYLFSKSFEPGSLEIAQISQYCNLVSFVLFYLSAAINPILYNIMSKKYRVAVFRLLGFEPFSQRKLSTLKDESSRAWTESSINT
3',5'-cyclic-AMP phosphodiesterase 4D, sequence (Q08499 whole entry): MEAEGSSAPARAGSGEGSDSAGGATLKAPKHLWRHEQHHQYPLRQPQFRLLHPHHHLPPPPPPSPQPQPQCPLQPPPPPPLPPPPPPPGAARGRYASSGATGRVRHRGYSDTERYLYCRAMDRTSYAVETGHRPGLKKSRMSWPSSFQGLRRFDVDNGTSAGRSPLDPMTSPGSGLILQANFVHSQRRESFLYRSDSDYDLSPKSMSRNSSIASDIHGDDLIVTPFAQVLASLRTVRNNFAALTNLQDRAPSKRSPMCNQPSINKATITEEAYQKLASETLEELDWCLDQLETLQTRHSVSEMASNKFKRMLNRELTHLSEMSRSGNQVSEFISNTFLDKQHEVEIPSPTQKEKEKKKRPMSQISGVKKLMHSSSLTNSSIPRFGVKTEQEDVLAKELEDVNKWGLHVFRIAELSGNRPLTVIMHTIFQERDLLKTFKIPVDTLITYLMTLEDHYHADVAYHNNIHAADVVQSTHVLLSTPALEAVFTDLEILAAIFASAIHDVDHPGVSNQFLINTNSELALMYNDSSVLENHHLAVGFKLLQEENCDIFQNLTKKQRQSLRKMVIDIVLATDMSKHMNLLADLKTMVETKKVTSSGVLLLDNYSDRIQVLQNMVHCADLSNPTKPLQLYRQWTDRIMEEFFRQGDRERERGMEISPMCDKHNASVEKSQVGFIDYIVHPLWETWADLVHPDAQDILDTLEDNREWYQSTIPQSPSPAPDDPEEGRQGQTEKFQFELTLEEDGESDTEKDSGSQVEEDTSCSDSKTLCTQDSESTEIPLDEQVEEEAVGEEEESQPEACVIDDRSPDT
D(3) dopamine receptor, sequence (P35462 whole entry): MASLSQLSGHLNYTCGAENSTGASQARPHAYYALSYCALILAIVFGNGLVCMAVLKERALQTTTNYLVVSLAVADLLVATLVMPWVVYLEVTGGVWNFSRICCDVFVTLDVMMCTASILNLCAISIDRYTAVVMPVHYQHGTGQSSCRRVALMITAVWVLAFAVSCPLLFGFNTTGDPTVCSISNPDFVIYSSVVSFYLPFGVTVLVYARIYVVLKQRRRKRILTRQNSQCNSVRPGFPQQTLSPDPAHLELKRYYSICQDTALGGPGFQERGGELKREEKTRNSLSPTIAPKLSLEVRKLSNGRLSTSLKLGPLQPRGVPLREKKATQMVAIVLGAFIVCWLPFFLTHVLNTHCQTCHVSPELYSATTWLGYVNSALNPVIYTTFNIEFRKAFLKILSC
Melanocortin receptor 3, sequence (P41968 whole entry): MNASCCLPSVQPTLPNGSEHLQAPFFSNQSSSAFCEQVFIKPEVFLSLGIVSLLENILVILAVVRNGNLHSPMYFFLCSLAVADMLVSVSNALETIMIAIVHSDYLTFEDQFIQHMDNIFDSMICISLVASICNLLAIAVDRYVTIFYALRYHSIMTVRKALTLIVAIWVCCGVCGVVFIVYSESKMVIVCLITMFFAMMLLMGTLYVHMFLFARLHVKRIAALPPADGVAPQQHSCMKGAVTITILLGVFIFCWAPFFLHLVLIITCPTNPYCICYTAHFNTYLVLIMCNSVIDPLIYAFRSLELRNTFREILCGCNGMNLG
Neuronal acetylcholine receptor subunit alpha-4, sequence (P43681 whole entry): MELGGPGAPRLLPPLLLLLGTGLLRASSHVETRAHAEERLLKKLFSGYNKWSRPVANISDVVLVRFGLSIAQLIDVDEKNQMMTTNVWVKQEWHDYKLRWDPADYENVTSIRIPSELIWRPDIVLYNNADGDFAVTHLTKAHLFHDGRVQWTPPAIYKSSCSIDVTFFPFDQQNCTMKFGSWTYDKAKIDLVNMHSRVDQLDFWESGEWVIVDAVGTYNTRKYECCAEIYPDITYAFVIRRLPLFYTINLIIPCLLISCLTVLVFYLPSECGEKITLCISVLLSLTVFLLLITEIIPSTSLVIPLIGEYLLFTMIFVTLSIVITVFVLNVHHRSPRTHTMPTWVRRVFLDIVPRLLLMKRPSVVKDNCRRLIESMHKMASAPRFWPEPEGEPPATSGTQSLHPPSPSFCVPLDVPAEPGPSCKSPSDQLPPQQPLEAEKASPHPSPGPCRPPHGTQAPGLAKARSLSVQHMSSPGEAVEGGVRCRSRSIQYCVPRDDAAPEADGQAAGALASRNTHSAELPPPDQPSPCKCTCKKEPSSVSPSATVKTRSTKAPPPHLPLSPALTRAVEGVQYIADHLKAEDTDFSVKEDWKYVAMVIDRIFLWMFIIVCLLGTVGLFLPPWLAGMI
5-hydroxytryptamine receptor 2B, sequence (P41595 whole entry): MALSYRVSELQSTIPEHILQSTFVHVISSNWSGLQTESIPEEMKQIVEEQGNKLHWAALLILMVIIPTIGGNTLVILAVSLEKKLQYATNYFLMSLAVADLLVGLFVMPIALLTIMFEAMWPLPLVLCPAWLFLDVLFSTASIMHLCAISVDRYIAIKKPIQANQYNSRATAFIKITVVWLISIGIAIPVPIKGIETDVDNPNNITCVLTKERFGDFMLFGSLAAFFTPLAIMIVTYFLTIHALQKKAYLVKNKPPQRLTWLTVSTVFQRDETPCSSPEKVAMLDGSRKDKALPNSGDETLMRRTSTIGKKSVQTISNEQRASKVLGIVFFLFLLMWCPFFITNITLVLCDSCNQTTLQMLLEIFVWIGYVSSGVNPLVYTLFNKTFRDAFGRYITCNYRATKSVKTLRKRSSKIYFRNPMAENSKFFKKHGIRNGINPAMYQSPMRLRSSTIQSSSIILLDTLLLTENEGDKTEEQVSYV
Motilin receptor, sequence (O43193 whole entry): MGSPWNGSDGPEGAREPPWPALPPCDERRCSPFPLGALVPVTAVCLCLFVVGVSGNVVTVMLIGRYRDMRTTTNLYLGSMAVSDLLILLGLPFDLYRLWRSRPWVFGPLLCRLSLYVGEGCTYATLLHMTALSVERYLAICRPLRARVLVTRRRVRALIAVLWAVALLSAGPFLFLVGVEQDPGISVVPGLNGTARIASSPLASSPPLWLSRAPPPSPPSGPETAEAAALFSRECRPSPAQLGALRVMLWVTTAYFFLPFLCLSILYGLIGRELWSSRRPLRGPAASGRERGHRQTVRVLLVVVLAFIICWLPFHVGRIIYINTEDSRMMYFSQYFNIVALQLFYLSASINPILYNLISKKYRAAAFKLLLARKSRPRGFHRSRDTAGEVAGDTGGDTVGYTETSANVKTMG
Sodium-dependent noradrenaline transporter, sequence (P23975 whole entry): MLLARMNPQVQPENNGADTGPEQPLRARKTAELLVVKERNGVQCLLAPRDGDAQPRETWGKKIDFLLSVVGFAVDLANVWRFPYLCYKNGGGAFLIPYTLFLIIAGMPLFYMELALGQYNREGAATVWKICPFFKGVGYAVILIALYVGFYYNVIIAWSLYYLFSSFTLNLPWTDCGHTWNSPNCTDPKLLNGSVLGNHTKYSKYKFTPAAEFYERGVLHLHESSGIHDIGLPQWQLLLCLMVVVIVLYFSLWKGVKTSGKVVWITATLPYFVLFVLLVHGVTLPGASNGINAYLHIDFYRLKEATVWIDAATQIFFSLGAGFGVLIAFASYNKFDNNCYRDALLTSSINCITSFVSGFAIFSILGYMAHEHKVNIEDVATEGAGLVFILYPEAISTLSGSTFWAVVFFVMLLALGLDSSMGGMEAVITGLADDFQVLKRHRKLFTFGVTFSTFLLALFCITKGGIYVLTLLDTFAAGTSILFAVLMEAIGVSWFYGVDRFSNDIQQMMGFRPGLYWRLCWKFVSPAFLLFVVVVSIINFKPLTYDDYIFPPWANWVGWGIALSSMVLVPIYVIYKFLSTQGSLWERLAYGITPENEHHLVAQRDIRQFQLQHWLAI

Regarding `Nc1c2c(nc3ccccc13)CCCC2O` (stereo unspecified) [VELNACRINE], the AC50 (in [1]; in test [2]; at Adenosine receptor A1; at Motilin receptor; in [3]; at Melanocortin receptor 3) was greater than 30 µM throughout. The AC50 (at Adenosine receptor A3; in [4]; at D(3) dopamine receptor; in [5]; in test [6]; in test [7]) was greater than 30 µM throughout. In addition, the concentration at half-maximal activity (AC50) in test [8] and in [9] was greater than 30 µM in each case.

Take `O=C(O)COC(=O)Cc1ccccc1Nc1c(Cl)cccc1Cl` [ACECLOFENAC]: the AC50 in test [1] is greater than 30 µM; in [2] it was greater than 30 µM; on Adenosine receptor A1 it was greater than 30 µM; on Motilin receptor, greater than 10 µM; in test [3] it was greater than 10 µM; on Melanocortin receptor 3 it was greater than 30 µM. The AC50 at Adenosine receptor A3 was greater than 30 µM; in test [4], greater than 10 µM; at D(3) dopamine receptor, greater than 30 µM; in test [5], greater than 30 µM; in test [6], greater than 30 µM; in [7] it was greater than 30 µM. The AC50 was greater than 10 µM in [8] and greater than 30 µM in test [9].

As to `O=C(O)[C@H]1/C(=C/CO)O[C@@H]2CC(=O)N21` [CLAVULANIC ACID], the AC50 (in [1]; in [2]; at Adenosine receptor A1; at Motilin receptor; in test [3]; at Melanocortin receptor 3) was greater than 30 µM each time. Further, the AC50 (on Adenosine receptor A3; in test [4]; at D(3) dopamine receptor; in test [5]; in test [6]; in [7]) was greater than 30 µM in each case. The AC50 in test [8] and in test [9] was greater than 30 µM each time.

Turning to `NCC1(CC(=O)O)CCCCC1` [GABAPENTIN], the AC50 (in test [1]; in test [2]; on Adenosine receptor A1; on Motilin receptor; in [3]; at Melanocortin receptor 3) was greater than 30 µM each time. Further, the AC50 (at Adenosine receptor A3; in test [4]; on D(3) dopamine receptor; in [5]; in test [6]; in test [7]) was greater than 30 µM each time. Also, the AC50 in test [8] and in test [9] was greater than 30 µM throughout.

For `CCC1(c2ccccc2)C(=O)NCNC1=O` [PRIMIDONE], the concentration at half-maximal activity (AC50) was greater than 10 µM in [1]; greater than 30 µM in test [2]; greater than 10 µM at Adenosine receptor A1; greater than 10 µM on Motilin receptor; greater than 10 µM in test [3]; greater than 10 µM on Melanocortin receptor 3. For the same molecule, the AC50 was greater than 10 µM at Adenosine receptor A3; greater than 10 µM in test [4]; greater than 30 µM on D(3) dopamine receptor; greater than 10 µM in [5]; greater than 30 µM in [6]; greater than 10 µM in test [7]. Further, the AC50 is greater than 10 µM in [8] and greater than 30 µM in test [9].

Take `CCN(CCO)CCCC(C)Nc1ccnc2cc(Cl)ccc12` (stereo unspecified) [HYDROXYCHLOROQUINE]: the concentration at half-maximal activity (AC50) in test [1] was greater than 10 µM; in [2] it was greater than 30 µM; on Adenosine receptor A1, greater than 10 µM; on Motilin receptor, greater than 10 µM; in [3], greater than 10 µM; on Melanocortin receptor 3, greater than 10 µM. The AC50 at Adenosine receptor A3 is greater than 10 µM; in [4], greater than 10 µM; at D(3) dopamine receptor, greater than 30 µM; in test [5], greater than 10 µM; in [6], greater than 30 µM; in test [7] it was greater than 10 µM. Moreover, the concentration at half-maximal activity (AC50) in test [8] and in test [9] was greater than 10 µM throughout.

With `C[C@H](CS)C(=O)N1CCC[C@H]1C(=O)O` [CAPTOPRIL], the AC50 in test [1] was greater than 30 µM; in test [2] it was greater than 30 µM; on Adenosine receptor A1, greater than 30 µM; on Motilin receptor, greater than 10 µM; in test [3], greater than 30 µM; on Melanocortin receptor 3, greater than 30 µM. For the same molecule, the AC50 was greater than 30 µM at Adenosine receptor A3; greater than 10 µM in [4]; greater than 30 µM at D(3) dopamine receptor; greater than 30 µM in test [5]; greater than 30 µM in test [6]; greater than 30 µM in [7]. Moreover, the AC50 was greater than 10 µM in [8] and greater than 30 µM in test [9].

Turning to `CCC[C@@]1(CCc2ccccc2)CC(O)=C([C@H](CC)c2cccc(NS(=O)(=O)c3ccc(C(F)(F)F)cn3)c2)C(=O)O1`, the half-maximal activity concentration (AC50) in test [1] is greater than 30 µM; in [2], greater than 30 µM; on Adenosine receptor A1 it was greater than 30 µM; at Motilin receptor, 27 µM; in test [3], greater than 30 µM; on Melanocortin receptor 3, greater than 30 µM. For the same molecule, the AC50 on Adenosine receptor A3 was 6.4 µM; in test [4], greater than 30 µM; at D(3) dopamine receptor, greater than 30 µM; in test [5] it was greater than 30 µM; in [6] it was 29 µM; in test [7], greater than 30 µM. For the same molecule, the values for the AC50 in test [8] and in [9] were greater than 30 µM and 11 µM, respectively.

Regarding `CCOC(=O)Nc1ccc(NCc2ccc(F)cc2)nc1N` [FLUPIRTINE], the half-maximal activity concentration (AC50) was greater than 30 µM in [1]; greater than 10 µM in test [2]; greater than 30 µM at Adenosine receptor A1; greater than 30 µM on Motilin receptor; greater than 30 µM in test [3]; greater than 30 µM on Melanocortin receptor 3. Moreover, the AC50 on Adenosine receptor A3 is 21 µM; in [4], greater than 30 µM; at D(3) dopamine receptor, greater than 30 µM; in test [5], greater than 30 µM; in test [6] it was greater than 30 µM; in test [7] it was greater than 30 µM. Also, the concentration at half-maximal activity (AC50) in [8] and in [9] was greater than 30 µM throughout.

Values taken from ChEMBL document CHEMBL5291721, “A preclinical secondary pharmacology resource illuminates target-adverse drug reaction associations of marketed drugs” (Nat Commun, 2023).
